# Experimental data: patent publication US9737260B2, “Methods for determining total body skeletal muscle mass” (GLAXOSMITHKLINE LLC, priority 2011, dated 2017)
# Columns and labels:
# [1] = rat, oral dose of 0.475 mg D3-creatine per rat
# [2] = Dexamethasone-induced skeletal muscle atrophy in rats: lean body mass by QMR and creatine pool size by D3-creatine dilution; conditions: 22 week-old rats, once daily subcutaneous for 2 weeks; P<0.001 vs vehicle (459±45 g)
SMILES,absorption of oral dose [1],D3-creatine tracer dose available to equilibrate with the body creatine pool ([1]; minimal urinary spillage) [%],lean body mass (LBM) [2] [g]
[2H]C([2H])([2H])N(CC(=O)O)C(=N)N [D3-creatine],rapidly and completely absorbed,> 99,
C[C@@H]1C[C@H]2[C@@H]3CCC4=CC(=O)C=C[C@]4(C)[C@@]3(F)[C@@H](O)C[C@]2(C)[C@@]1(O)C(=O)CO [dexamethasone],,,353 ± 32
